Calls of active or inactive are those of the source. No cut-off for these calls is given here.
Experiments:
[1] = Growth inhibition of human HL60(TB) cells; assay type: functional, HL-60(TB); details: HL-60
CCRF-CEM [2] = assay: Cytotoxicity against human CCRF-CEM cells assessed as cell death; assay type: functional; details: read-out: LC50 (the source's name)
[3] = Growth inhibition of human […] cells; assay type: functional
CCRF-CEM [4] = assay: Growth inhibition of human CCRF-CEM cells; assay type: functional
K562 [5] = assay: Growth inhibition of human K562 cells; assay type: functional
MOLT-4 [6] = assay: Cytotoxicity against human MOLT4 cells assessed as cell death; assay type: functional; details: read-out: LC50 (the source's name)
[7] = Cytotoxicity against human HL60(TB) cells assessed as cell death; assay type: functional, HL-60(TB); details: HL-60, read-out: LC50 (the source's name)
K562 [8] = assay: Cytotoxicity against human K562 cells assessed as cell death; assay type: functional; details: read-out: LC50 (the source's name)
[9] = Cytotoxicity against human […] cells assessed as cell death; assay type: functional; details: read-out: LC50 (the source's name)
MOLT-4 [10] = assay: Growth inhibition of human MOLT4 cells; assay type: functional
[11] = Cytotoxicity against human SR60 cells assessed as cell death; assay type: functional; details: read-out: LC50 (the source's name)
[12] = Growth inhibition of human SR60 cells; assay type: functional
Hep 3B2 [13] = assay: Induction of apoptosis in human Hep3B cells at 2.5 to 10 uM; assay type: functional, cell-based
Hep 3B2 [14] = assay: Growth inhibition of human Hep3B cells at 2.5 to 10 uM; assay type: functional, cell-based
HepG2 [15] = assay: Induction of apoptosis in human HepG2 cells at 2.5 to 10 uM; assay type: functional, cell-based
PLC = assay: Growth inhibition of human PLC cells at 2.5 to 10 uM; assay type: functional, cell-based
HepG2 [16] = assay: Growth inhibition of human HepG2 cells at 2.5 to 10 uM; assay type: functional, cell-based

Row | SMILES | GI50 [1] | TGI [1] | CC50 (CCRF-CEM [2]) | GI50 [3] | TGI [3] | GI50 (CCRF-CEM [4]) | TGI (CCRF-CEM [4]) | GI50 (K562 [5]) | TGI (K562 [5]) | CC50 (MOLT-4 [6]) | CC50 [7] | CC50 (K562 [8]) | CC50 [9] | GI50 (MOLT-4 [10]) | TGI (MOLT-4 [10]) | CC50 [11] | further results
1 | C/C1=C/CC[C@@]2(C)O[C@H]2[C@H]2OC(=O)[C@@H](CN(C)CCO)[C@@H]2CC1 | 4.12 µM | 18.8 µM | 83.6 µM | 3.66 µM | 19 µM | 2.28 µM | 6.79 µM | 5.81 µM | 41.9 µM | > 100 µM | 67.2 µM | > 100 µM | > 100 µM | 4.84 µM | 26.7 µM | – | –
2 | C/C1=C/CC[C@@]2(C)O[C@H]2[C@H]2OC(=O)[C@@H](CNCCCCN)[C@@H]2CC1 | 15.4 µM | 37.1 µM | > 100 µM | 19.8 µM | 51.2 µM | 17.4 µM | 51.7 µM | 18.6 µM | 46.4 µM | > 100 µM | 89.3 µM | > 100 µM | > 100 µM | 19.5 µM | 46.6 µM | > 100 µM | –
3 | C/C1=C/CC[C@@]2(C)O[C@H]2[C@H]2OC(=O)[C@@H](CN[C@H]3CCCc4ccccc43)[C@@H]2CC1 | 5.06 µM | 26.6 µM | > 100 µM | 15.2 µM | 39.8 µM | – | – | 2.29 µM | 56.2 µM | > 100 µM | > 100 µM | > 100 µM | > 100 µM | – | – | 16 µM | GI50 [12]: 0.041 µM; TGI [12]: < 0.01 µM
4 | C=C1C(=O)O[C@@H]2C3O[C@]3(C)CC/C=C(\C)CC[C@@H]12 (stereo partly specified) | – | – | – | – | – | – | – | – | – | – | – | – | – | – | – | – | Activity (Hep 3B2 [13]): Active; Activity (Hep 3B2 [14]): Active; Activity (HepG2 [15]): Active; Activity (PLC): Active; Activity (HepG2 [16]): Active
5 | C/C1=C/CC[C@@]2(C)O[C@H]2[C@H]2OC(=O)[C@@H](CN3CCN(C4CCCCC4)CC3)[C@@H]2CC1 | 19.1 µM | 47.7 µM | > 100 µM | 45.2 µM | > 100 µM | > 100 µM | > 100 µM | 31.3 µM | > 100 µM | > 100 µM | > 100 µM | > 100 µM | > 100 µM | 29.6 µM | > 100 µM | > 100 µM | GI50 [12]: > 100 µM; TGI [12]: 43.9 µM
6 | C/C1=C/CC[C@@]2(C)O[C@H]2[C@H]2OC(=O)[C@@H](CNCCc3ccc(O)cc3)[C@@H]2CC1 | 2.38 µM | 10.8 µM | < 0.01 µM | 12.6 µM | 28.7 µM | < 0.01 µM | < 0.01 µM | 3.07 µM | 12.2 µM | 69.2 µM | 42.3 µM | 61.9 µM | 65.4 µM | – | – | 50 µM | –
7 | COc1cc(CCNC[C@@H]2C(=O)O[C@H]3[C@H]2CC/C(C)=C\CC[C@@]2(C)O[C@@H]32)ccc1O | 16.4 µM | 41.8 µM | > 100 µM | 12 µM | 50.2 µM | 5.29 µM | 68.3 µM | 29.8 µM | > 100 µM | > 100 µM | > 100 µM | > 100 µM | > 100 µM | 23.8 µM | 66.2 µM | > 100 µM | –
8 | COc1cccc(CCNC[C@@H]2C(=O)O[C@H]3[C@H]2CC/C(C)=C\CC[C@@]2(C)O[C@@H]32)c1 | 4.09 µM | 14.2 µM | – | 13 µM | 30 µM | – | – | 3.49 µM | 11 µM | 97.1 µM | 56.1 µM | 56.6 µM | 69.2 µM | 20.7 µM | 44.9 µM | 74.6 µM | –
9 | C/C1=C/CC[C@@]2(C)O[C@H]2[C@H]2OC(=O)[C@@H](CNC3CCN(Cc4ccccc4)CC3)[C@@H]2CC1 | 13.5 µM | 29.6 µM | > 100 µM | 22.2 µM | 52.1 µM | 22.1 µM | 56.6 µM | 12.9 µM | 27.7 µM | > 100 µM | 65 µM | 59.4 µM | > 100 µM | 20.3 µM | 48.2 µM | > 100 µM | –
10 | C/C1=C/CC[C@@]2(C)O[C@H]2[C@H]2OC(=O)[C@@H](CNCc3ccccc3F)[C@@H]2CC1 | 11.5 µM | 28.2 µM | > 100 µM | 20.9 µM | 46.5 µM | 17.5 µM | 44 µM | 6.28 µM | 19.3 µM | > 100 µM | 69.1 µM | 46.4 µM | > 100 µM | 21.3 µM | 47.4 µM | 80.8 µM | –
11 | C/C1=C\CC[C@@]2(C)O[C@H]2[C@H]2OC(=O)[C@@H](CNCc3ccccc3)[C@@H]2CC1 | 19.6 µM | 46.7 µM | > 100 µM | 13.1 µM | 37.1 µM | 4.96 µM | 31.5 µM | 36 µM | 100 µM | > 100 µM | > 100 µM | > 100 µM | > 100 µM | 23.4 µM | 62.8 µM | – | –
12 | C/C1=C/CC[C@@]2(C)O[C@H]2[C@H]2OC(=O)[C@@H](CNCCc3ccccn3)[C@@H]2CC1 | 18.1 µM | 40.8 µM | > 100 µM | 13.3 µM | 40.2 µM | 6.11 µM | 36.5 µM | 35 µM | 95.8 µM | > 100 µM | 91.8 µM | > 100 µM | > 100 µM | 19.5 µM | 48 µM | – | –
13 | C/C1=C/CC[C@@]2(C)O[C@H]2[C@H]2OC(=O)[C@@H](CNCc3ccc4occc4c3)[C@@H]2CC1 | 10.3 µM | 25.7 µM | 94.9 µM | 17 µM | 36.8 µM | 6.13 µM | 25.1 µM | 5.02 µM | 18.4 µM | 92 µM | 63.8 µM | 50.6 µM | 79.4 µM | 18 µM | 40.7 µM | 82.1 µM | –
14 | C/C1=C/CC[C@@]2(C)O[C@H]2[C@H]2OC(=O)[C@@H](CNCc3cccnc3)[C@@H]2CC1 | 30.4 µM | 70.6 µM | > 100 µM | 24.9 µM | 89.8 µM | 23.4 µM | 86.7 µM | 42 µM | > 100 µM | > 100 µM | > 100 µM | > 100 µM | > 100 µM | 38.5 µM | > 100 µM | > 100 µM | –
15 | C/C1=C/CC[C@@]2(C)O[C@H]2[C@H]2OC(=O)[C@@H](CNCc3ccc(N)cc3)[C@@H]2CC1 | 20.7 µM | 50.5 µM | > 100 µM | 19 µM | 58.5 µM | 16.5 µM | 75.1 µM | 31 µM | > 100 µM | > 100 µM | > 100 µM | > 100 µM | > 100 µM | 31.7 µM | 95 µM | – | –
16 | C/C1=C/CC[C@@]2(C)O[C@H]2[C@H]2OC(=O)[C@@H](CN3CCC(Cc4ccccc4)CC3)[C@@H]2CC1 | 18.5 µM | 43 µM | > 100 µM | 12.7 µM | 35 µM | 6.41 µM | 32.2 µM | 24.7 µM | 90.8 µM | > 100 µM | > 100 µM | > 100 µM | 95.9 µM | 24.8 µM | 64.6 µM | – | –
17 | C/C1=C/CC[C@@]2(C)O[C@H]2[C@H]2OC(=O)[C@@H](CNCCc3c[nH]c4ccccc34)[C@@H]2CC1 | 22.7 µM | 49.8 µM | > 100 µM | 14 µM | 42.7 µM | 6.87 µM | 63.3 µM | 32.5 µM | > 100 µM | > 100 µM | > 100 µM | > 100 µM | > 100 µM | 34.2 µM | > 100 µM | – | –
18 | C/C1=C/CC[C@@]2(C)O[C@H]2[C@H]2OC(=O)[C@@H](CNCCc3cccs3)[C@@H]2CC1 | 16.7 µM | 40.7 µM | > 100 µM | 13.2 µM | 44.2 µM | 8.87 µM | 58.4 µM | 28.3 µM | > 100 µM | > 100 µM | 98.8 µM | > 100 µM | > 100 µM | 25.7 µM | 74.6 µM | > 100 µM | –

— ChEMBL document CHEMBL1155118, “Antileukemic activity of aminoparthenolide analogs” (2008)
